Data as given in patent US8518903B2, “Use of toll-like receptor-9 agonists” (University of Pittsburgh—of the Commonwealth System of …, priority 2007, dated 2013).

System: experimental NEC in newborn mice
Experiment: Murine NEC model in NFkB-GFP transgenic mice (histology, mucosal TNF-α RTPCR, NFκB activation)
Assay type: in vivo, mouse
Conditions: NEC mice
Method: FIG. 27A-G. CpG-ODN-HS and CpG-DNA reduce the development of experimental NEC in vivo in newborn mice. Newborn NEC and control mice were injected with CpG-ODN-HS or CpG-DNA. A. Histology (H&E) of terminal ileum of breast fed mouse. B. Histology (H&E) of terminal ileum of mouse after induction of NEC. C. Histology (H&E) of terminal ileum of mouse treated with CpG-DNA, after which conditions which induced NEC were applied. D. Histology (H&E) of terminal ileum of mouse treated with CpG-ODN-HS, after which conditions which induced NEC were applied. E. Histology (H&E) of terminal ileum of breast fed mouse treated with CpG-ODN-HS. F. Histology (H&E) of terminal ileum of breast fed mouse treated with CpG-DNA. G. Severity of NEC in newborn mice as scored by a blinded pediatric pathologist. *p<0.05 vs. NEC in saline-injected mice.
FIG. 28. CpG-ODN-HS and CpG-DNA reduce the expression of mucosal TNF-α in NEC newborn mice in vivo.
FIG. 29A-D. Confocal microscopy showing the extent of NFkB activation in mice with NEC in the absence or presence of CpG-ODN-HS. CpG-ODN-HS reduces the level of NFkB activation in NEC newborn mice in vivo. The mice express NFkB-GFP, and sections were stained with anti-GFP antibody (red; arrow).
The effect of the TLR9 agonist CpG-ODN 5′ […] 3′ (SEQ ID NO:10; referred to herein as CpG-ODN-HS) on the mediator of activated TLR4, NFκB, was examined in a murine NEC model (previously described, above). The effect of CpG-ODN-HS on inflammation in the NEC murine model was also examined as a measured by TNF-α expression, which is an index of inflammation.
Materials and methods. Phosphorothioated CpG-ODN-HS and oligodeoxynucleotide (ODN) 1826 ([…]) (SEQ ID NO:6; referred to herein as CpG-DNA) were synthesized by the University of Pittsburgh DNA synthesis facility. ODNs were confirmed to be endotoxin-free by Limulus assay. NFkB-GFP antibody was obtained from Santa Cruz and Abcam. The extent of nuclear translocation was determined in an adaptation of the methodology of Ding and colleagues. In brief, a threshold limit was set based upon the emission signal for the nuclear stain DRAQ5, which therefore defined a nuclear region of interest (ROI). To define a corresponding cytoplasmic region of interest, a circular region 12 pixels beyond the nucleus was stenciled upon each cell. The average integrated pixel intensity pertaining to the corresponding NFkB emission within the cytoplasmic and nuclear regions was then determined for more than 200 cells per treatment group in at least four experiments per group, using MetaMorph software version 6.1 (Molecular Devices Corporation, Downingtown, Pa.).
Mucosal TNF-α expression was measured using quantitative real-time PCR (RTPCR). Quantitative real-time PCR in cultured enterocytes and intestinal tissue using the BioRad iCycler (Biorad, Hercules, CA) was performed as in (Leaphart, C. L., J. Cavallo, S. C. Gribar, S. Cetin, J. Li, M. F. Branca, T. D. Dubowski, C. P. Sodhi, and D. J. Hackam. 2007. A Critical Role for TLR4 in the Pathogenesis of Necrotizing Enterocolitis by Modulating Intestinal Injury and Repair. J Immunology 179:4808-4820). Oligonucleotide primer pairs used for RTPCR were as follows: forward: 5′ […] 3′ (SEQ ID NO:14), reverse: 5′ […] 3′ (SEQ ID NO:15); and forward: 5′ […] 3′ (SEQ ID NO:16), reverse: 5′ […] 3′ (SEQ ID NO:17). Gene expression was normalized to β-actin expression. Where indicated, gene expression was assessed on 2.5% agarose gels using ethidium bromide staining. […]

5′-TCCATGACGTTCCTGACGTT-3′ [CpG-DNA]
level of expression of mucosal TNF-α in terminal ileum (RTPCR): reduced | NEC pathology (histology of terminal ileum) (treated vs untreated): inhibition of the NEC pathology
